In publication PMC9965125, “New NSAID Conjugates as Potent and Selective COX-2 Inhibitors: Synthesis, Molecular Modeling and Biological Investigation” (Molecules, 2023):
Several values for one entry are separate records, joined by “and”; a condition that tells them apart may be missing. Equal values may be shown once.

What was measured:
[1] = system: carrageenan induced paw edema; assay: carrageenan-induced rat paw edema; type: in vivo; settings: for % Inhibition of Edema ± Standard Error / Mean Edema Thickness: 10 mg/kg indomethacin mol equivalent i.p.; for Mean Edema Thickness: ± standard error
mice = assay: toxicological bioassay; type: in vivo; settings: five times the anti-inflammatory dose (50 mg/kg indomethacin mol equivalent); recorded 24 h post-administration
Procedure: Five times the anti-inflammatory dose was orally administrated. […]
5a, 5b, 5d, 5e) was determined utilizing the standard method in mice. Albino mice weighing 20–25 g were divided into 6 groups of 6 mice each. Administrations of the tested compounds dissolved in distilled water by the aid of few drops of Tween 80 were given intraperitoneally in 50 […]
inflammatory dosage). The control group was given water only with few drops of Tween 80. The toxic symptoms and mortality rates were recorded 24 h post -administration in each group.

TNF-α mRNA = settings: 40 μg/mL; in comparison to LPS-stimulated cells only
Procedure: (§1) For this purpose, the mRNA levels of IL-6, TNF-α, and iNOS were measured using real-time qPCR (RT-qPCR).
(§2) Treatment of LPS-stimulated RAW264.7 macrophages was done with 40 µg/mL of the isolated
(§3) Evaluation of inflammatory mRNA expression levels
(§4) Inflammatory mRNA expression levels were evaluated using RT-qPCR (Applied Biosystems, CA, USA). Total RNA was extracted by lysing RAW264.7 cells using Qiazol Lysis Reagent. The extracted RNA was used to synthesize cDNA using RevertAid First Strand cDNA synthesis kit according to manufacturer’s protocol. The cDNA was then added with forward and reverse
(§5) primers, nuclease free water and maxima SYBR green mix (Thermo Fisher Scientific, MA, USA).
(§6) The inflammation-related genes of mRNA expression levels are as follows: IL-6, TNF-α, and
(§7) iNOS. All expression was normalized to GAPDH (endogenous control) and relative fold mRNA
(§8) expression levels were calculated using the comparative 2 −ΔΔCT method. The PCR reaction consists
(§9) of initiation stage at 95 °C for 10 min, after that 40 PCR cycles of d enaturation stage for 15 s at 95
(§10) °C and annealing and extension for 1 min at 60 °C.

iNOS mRNA = settings: 40 μg/mL; in comparison to LPS-stimulated cells only
Procedure: as §1, §2, §3, §4, §5, §6, §7, §8, §9, §10

IL-6 mRNA = settings: 40 μg/mL; in comparison to LPS-stimulated cells only
Procedure: as §1, §2, §3, §4, §5, §6, §7, §8, §9, §10

[2] = system: LPS-stimulated RAW264.7 macrophages; assay: NO production of LPS-induced RAW264.7 (Griess method); type: cell-based; settings: 40 μg/mL; LPS 10 ng/mL; LPS only 22 μM, baseline 12.8 μM

Structure (SMILES)	% Inhibition of Edema ± Standard Error ([1]; 1 h)	Mean Edema Thickness ([1]; 1 h)	% Inhibition of Edema ± Standard Error ([1]; 2 h)	Mean Edema Thickness ([1]; 2 h)	% Inhibition of Edema ± Standard Error ([1]; 3 h, 10 mg/kg)	Mean Edema Thickness ([1]; 3 h)	% Inhibition of Edema ± Standard Error ([1]; 4 h)	Mean Edema Thickness ([1]; 4 h)	% Inhibition of Edema ± Standard Error ([1]; 24 h)	Mean Edema Thickness ([1]; 24 h)	% Potency ([1]; % inhibition of edema thickness relative to indomethacin at 3 h)	toxic symptoms or mortality (mice)	reduction in TNF-α mRNA levels (TNF-α mRNA)	reduction in iNOS mRNA levels (iNOS mRNA)	reduction in IL-6 mRNA levels (IL-6 mRNA)	LPS-stimulated NO production (nitrite) [2]
C#CCOC(=O)C(C)c1ccc(CC(C)C)cc1 (stereo not drawn) [Compound 3, Prop-2-yn-1-yl 2-(4-isobutylphenyl) Propanoate]	15.8 ± 1.9%	0.727 ± 0.05 mm	17.4 ± 0.9%	0.589 ± 0.01 mm	85.8% and 85.8 ± 1.1%	0.103 ± 0.04 mm	33.7 ± 1.2%	0.473 ± 0.03 mm	0.00 ± 0.3%	0.920 ± 0.02 mm	105.8%	No toxic symptoms or mortality	–	–	–	–
Cc1ccc(-n2cc(COC(=O)C(C)c3ccc(CC(C)C)cc3)nn2)cc1 (stereo not drawn) [Compound 5d, (1-(p-Tolyl)-1H-1,2,3-triazol-4-yl)methyl 2-(4-isobutylphenyl)propanoate]	–	–	–	–	–	–	–	–	0.00 ± 1.7%	–	–	No toxic symptoms or mortality	72%	59%	66.2%	1.45 ± 1.3 µM
COc1ccccc1-n1cc(COC(=O)C(C)c2ccc(CC(C)C)cc2)nn1 (stereo not drawn) [Compound 5e, (1-(2-Methoxyphenyl)-1H-1,2,3-triazol-4-yl)methyl 2-(4-isobutylphenyl)propanoate]	–	–	–	–	–	–	7.4 ± 1.8%	–	–	–	–	No toxic symptoms or mortality	86%	42%	82%	insignificant decrease
